Experimental data reported in patent US10913714B2, “Pyrrole sulfonyl derivative, preparation method and medical use thereof” (JIANGSU CAREPHAR PHARMACEUTICAL CO., LTD, priority 2015, dated 2021).
Counter-ions that a name gives are not always drawn. Marks after values point to notes of the source that are not given here.

Legend:
[1] = system: gastric acid secretion induced by histamine; assay: Gastric acid secretion induced by histamine in pylorus-ligated rats; assay type: in vivo; settings: SD rat; for Total acid content: 2 mg/kg by gavage 1 h before histamine, total acid of 3 h; for Acid inhibiting rate %: 2 mg/kg by gavage, compared with model control
Description: Test Case 3: Studies on the Effect of EXP 1, TAK-438 and EXP 14 on Gastric Acid Secretion Induced by Histamine Experimental Materials 1) Animals
SD rat, class SPF, male, 180-220 g; provided by Zhejiang Experimental Animal Center; production permit no.: SCXK (Z) 2014-0001.
Compound EXP 1, dissolved with a small amount of acetic acid (about 1.10N EXP 1), 0.9% sodium chloride solution to a clear liquid with needed concentration before use.
>Compound TAK-438, dissolved with 0.9% sodium chloride solution to a clear liquid with needed concentration before use.
Compound EXP 14, dissolved with a small amount of acetic acid (about 1.10N EXP 14), 0.9% sodium chloride solution to a clear liquid with needed concentration before use.
Fetching 60 SD rats of class SPF with a weight of 180-220 g; dividing the rats into 5 groups as per weights randomly, including Group EXP 1 (2 mg/kg), Group TAK-438 (2 mg/kg, as per free alkali), Group EXP 14 (2 mg/kg), Group negative control (normal saline of equal volume) and Group model control (normal saline of equal volume); 12 rats per group. Absolute diet for 24 h, water is allowed. After 24 h, administrating drugs to the tested compound groups A, B and C by gavage with a volume of 1 ml/100 g; each group is administered once; the negative control and model negative control groups are administrated by gavage with normal saline of equal volume. Narcotizing the rat with 300 mg/kg of chloral hydrate (1 ml/100 g) and fixing it onto the rat board; cutting to open the abdominal wall along the medioventral line from the mucronate cartilage with an incision of 2-3 cm; slightly pushing the left costal margin upward to expose the stomach in the incision. Ligaturing the pylorus thereunder (leave alone the adjacent blood vessels) and then suturing the abdominal incision. Giving histamine dihydrochloride (30 mg/10 m/kg) hypodermically to the rat 1 h after the tested compound or normal saline are administrated. Choking the rat to death with excessive CO2 3 h after the histamine is given; taking out the stomach and collecting the gastric contents for centrifugation at 3000 rpm/min; adjusting the PH value of the acid fluid to 7.0 with 0.1 mol/L of NaOH titration and then calculating the total acid content of the 3 h. Refer to Table 3 for results.

[2] = target: T1, H^+/K^+-ATPase (Oryctolagus cuniculus, UniProt P27112); assay: Inhibition of H+/K+-ATPase enzymatic activity (rabbit gastric mucosal microsomes, malachite green); assay type: biochemical; settings: pH 6.5, 37° C. 30 min, read-out: The median inhibitory concentration (IC50) of the compound to the activity of H^+/K^+-ATPase
T1 construct: collecting the middle layer (H^+/K^+-ATPase enriched gastric membranes) into a clean centrifugal tube; from tissue; host or cells: rabbit stomach (gastric mucosal microsomes, sucrose/Ficoll gradient centrifugation)
T1 sequence (P27112 whole entry): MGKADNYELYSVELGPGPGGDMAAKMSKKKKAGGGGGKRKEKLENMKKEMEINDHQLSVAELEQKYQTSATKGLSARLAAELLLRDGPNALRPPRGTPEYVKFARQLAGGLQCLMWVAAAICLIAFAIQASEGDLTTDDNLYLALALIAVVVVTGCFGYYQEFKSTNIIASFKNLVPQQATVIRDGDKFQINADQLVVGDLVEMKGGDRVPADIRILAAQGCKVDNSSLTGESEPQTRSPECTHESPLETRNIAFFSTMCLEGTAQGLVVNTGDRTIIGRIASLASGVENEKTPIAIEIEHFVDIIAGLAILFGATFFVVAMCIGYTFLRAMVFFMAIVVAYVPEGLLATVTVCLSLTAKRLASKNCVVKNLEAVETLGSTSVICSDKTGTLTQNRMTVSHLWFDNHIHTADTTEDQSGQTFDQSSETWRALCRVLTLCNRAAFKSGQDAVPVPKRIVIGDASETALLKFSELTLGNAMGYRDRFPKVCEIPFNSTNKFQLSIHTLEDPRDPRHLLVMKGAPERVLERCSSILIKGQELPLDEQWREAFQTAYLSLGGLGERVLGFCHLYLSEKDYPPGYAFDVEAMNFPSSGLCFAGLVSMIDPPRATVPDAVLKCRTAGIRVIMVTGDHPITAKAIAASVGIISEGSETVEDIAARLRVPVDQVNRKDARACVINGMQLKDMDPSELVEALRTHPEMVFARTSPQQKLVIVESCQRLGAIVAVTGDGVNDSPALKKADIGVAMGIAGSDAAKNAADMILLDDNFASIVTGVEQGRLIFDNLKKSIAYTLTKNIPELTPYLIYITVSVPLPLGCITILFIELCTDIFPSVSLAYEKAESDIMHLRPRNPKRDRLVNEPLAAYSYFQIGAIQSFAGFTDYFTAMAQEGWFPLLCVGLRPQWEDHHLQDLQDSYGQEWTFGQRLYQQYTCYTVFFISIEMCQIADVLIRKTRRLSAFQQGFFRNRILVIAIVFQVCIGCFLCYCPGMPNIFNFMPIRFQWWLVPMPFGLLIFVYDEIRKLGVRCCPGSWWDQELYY
T1 sequence (P18597 whole entry partner): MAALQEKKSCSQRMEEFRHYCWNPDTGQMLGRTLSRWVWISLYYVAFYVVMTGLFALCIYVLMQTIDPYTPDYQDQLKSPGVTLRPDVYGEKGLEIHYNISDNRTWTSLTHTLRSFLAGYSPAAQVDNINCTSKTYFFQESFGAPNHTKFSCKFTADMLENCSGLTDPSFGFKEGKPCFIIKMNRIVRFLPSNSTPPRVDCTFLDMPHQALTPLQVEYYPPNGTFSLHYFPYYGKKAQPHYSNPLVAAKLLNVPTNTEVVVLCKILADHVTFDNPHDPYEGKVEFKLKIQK
Description: Biological Evaluation on H^+/K^+-ATPase
The following screening assays in vitro are used to evaluate the inhibiting effect of the compound of the Invention on the enzymatic activity of H^+/K^+-ATPase. Experimental materials and instruments are as follows:
1) Rabbit gastric mucosal microsomes (enriched H^+/K^+-ATPase; extracted by the Applicant)
2) Buffer solution: 50 mmol/L HEPEs-Tris, pH=6.5, 5 mmol/L magnesium chloride, 10 μmol/L valinomycin;
3) Buffer solution: 50 mmol/L HEPEs-Tris, pH=6.5, 5 mmol/L magnesium chloride, 10 μmol/L valinomycin, 5 mmol/L potassium chloride;
4) ATP: diluting ATP to 5 mM with buffer solution 1;
5) Malachite green solution: dissolving 0.12% of malachite green in 2.5 mol/L of sulfuric acid; mixing 7.5% (V/V) of ammonium molybdate and 11% of Tween 20(V/V) in a proportion of 100:25:2;
6) The method for extracting rabbit gastric mucosal microsomes (enriched H^+/K^+-ATPase) is sucrose gradient centrifugation, i.e., washing the rabbit stomach with tap water and 3M NaCl solution respectively and removing the surface moisture with filter paper; adding the pre-cooled buffer solution (4 ml/g tissue) for homogenation in a tissue homogenizer for 2-5 min; removing the large tissue particles in a way of centrifugation (600 g, 10 mm) if any after homogenation; transferring the supernatant to a clean centrifugal tube for centrifugation for 30 min at 2000 g; then transferring the supernatant to a clean centrifugal tube for further centrifugation for 90 min at 100000 g; collecting the sediment; suspending the sediment in the homogenate and blowing it to be uniform; measuring the protein concentration with Bradford method; adjusting the concentration to 10 mg/ml; adding 7.5% Ficoll demixing fluid in an equal proportion for centrifugation for 60 min at 100000 g; collecting the middle layer (H^+/K^+-ATPase enriched gastric membranes) into a clean centrifugal tube; diluting it with 4-5 times of homogenate for further centrifugation for 90 min at 100000 g; collecting the sediment; suspending the sediment in the homogenate for homogenation with a glass homogenizer; measuring the protein concentration with Bradford method and adjusting the concentration to 22.5 mg/ml; freezing it under −80° C. for standby. Experimental Process:
Adding 5 μL of gastric mucosal microsomes (H^+/K^+-ATPase) in 45 µL of buffer solution 2; adding 5 μL of the compound solution; adding 5 μL 5 mM of ATP to start the reaction for pre-reaction at 37° C. for 30 min; adding 15 μL of malachite green solution to terminate the reaction; balancing at ambient temperature for 20 min; reading the value of absorbed light at 620 nm.
Meanwhile, conducting another reaction with the same volume without potassium chloride for background, which will be subtracted when calculating the enzymatic activity.
The value of Compound IC50 is calculated through the inhibition ratios at different concentrations.

[3] = Acute toxicity test, single gavage in rats; assay type: in vivo; settings: SD rat, gavage once, observed 14 days
Method: Test content: single administration dosage: 2000 mg/kg, 600 mg/kg; administration by gavage: once; volume: 10 ml/kg; observing for 14 days for the rat's behavior and weight each day.
Experimental grouping: black group, Group of 600 mg/kg, Group of 2000 mg/kg; 4 rats each group; half male and half female.

Row | SMILES | Total acid content [1] | Acid inhibiting rate % [1] [%] | IC50 [2] [µM] | Impact on the rat's weight ([3]; 600 mg/kg) | Death after single oral dose ([3]; 2000 mg/kg) | Death after single oral dose ([3]; 600 mg/kg)
1 | CNCc1cc(-c2ccccc2F)n(S(=O)(=O)c2cccnc2)c1 [TAK-438, 5-(2-fluorophenyl)-N-methyl-1-(3-pyridylsulfonyl)-1H-pyrrole-3-methamine fumarate] | 0.52 ± 0.10** 10^−4 mol | 52.3 | < 0.1 | inhibition of weight gain | all died | 
2 | CNCc1cc(-c2ccccc2F)n(S(=O)(=O)c2cccc(OCCCOC)c2)c1 [EXP 1, 1-(5-(2-fluorobenzene)-1-((3-(3-methoxypropoxy)phenyl)sulfonyl)-1H-pyrrole-3-yl)-N-methyl methylamine] | 0.49 ± 0.12** 10^−4 mol | 55.4 | < 0.1 | not obvious | no death | no death
